Experimental findings from PMC7168327, “Designed Antimicrobial Peptides for Topical Treatment of Antibiotic Resistant Acne Vulgaris” (Antibiotics, 2020) are described below.

The structures appear in SMILES notation. Values after ≈ are worked out from the molar mass of the structure shown. “Also recorded” adds a separate entry of the source. Bridge positions count the residues as written; N and C are the ends. Peptide text beside a SMILES is read from it.

Series [1] concerns C. acnes HL043PA2. Put plainly: Multidrug-resistant C. acnes intradermal murine infection model. It counts as in vivo. To be noted: topical 25 μL, BALB/c mice; for mean bacterial burden in skin (CFU/g): 7 applications 2–74 h post infection, skin harvested at 96 h, n = 6. The procedure: All animals received care in compliance with the Guide for the Care and Use of Laboratory Animals (8th Edition, National Institutes of Health Publication, 2011). All studies were approved by the Institutional Animal Care and Use Committee. Female BALB/c mice, 5 to 7 weeks, were obtained from Envigo Laboratories Inc (Indianapolis, IN, USA). General anesthesia consisted of an intraperitoneal injection of ketamine 100 mg/kg and xylazine 10 mg/kg (Vedco, Inc., St. Joseph, MO, USA).
Mice were inoculated via intradermal (ID) injection of the antibiotic-resistant C. acnes HL043PA2 (7.0 log10 CFU, 50 μL, BEI Resources, HM-514, [14]). The day prior to infection, each mouse was anesthetized using isoflurane, and an area of approximately 1″ × 1″ of skin on the dorsal area of each mouse was shaved and cleared of hair using the depilatory agent Nair®. Beginning 2 h after infection, mice were anesthetized and RP556, formulated in 2% hydroxypropyl methylcellulose in water, viscosity 3000–5600 cP, or 40 mg/mL clindamycin (4%) was administered topically, at 25 μL twice daily for a total of 7 applications (2, 14, 26, 38, 50, 62 and 74 h post infection). Abscesses were harvested at 96 h post-challenge (or Day 7 for untreated control) and assessed for bacterial CFU per gram of skin tissue.

The test system of series [2] is C. acnes HL082PA2. It counts as cell-based, Cutibacterium acnes. To be noted: C. acnes HL082PA2; RCM broth, anaerobic, 1 × 10^6 CFU per mL, two-fold dilutions 0.5–32 μg/mL, 48 h, OD 600 nm; mean of three replicates. The procedure:
(§1) The ten antibiotic resistant C. acnes clinical isolates were acquired from BEI resources with the two reference strains obtained from American Type Culture Collection (ATCC, Manassas, VA, USA). C. acnes is a relatively slow-growing, typically aerotolerant anaerobic so all in vitro C. acnes experiments were performed under anaerobic conditions.
(§2) Single colonies were inoculated in Reinforced Clostridium Medium (RCM) broth supplemented with sodium thioglycolate and incubated at 37 °C, with shaking at 200 rpm, for 2 or 3 days to reach logarithmic growth (OD600nm = 1.0). Each C. acnes (1 × 10^6 CFU per mL) was incubated with dAMP or clindamycin at two-fold serial dilutions (0.5–32 μg per mL) in RCM on a 96-well microplate for 48 h. Three replicas were included for each test article concentration. Bacterial growth was measured by optical density at 600 nm to determine the MIC for each dAMP applied.

The subject of series [3] is C. acnes ATCC11827. It counts as cell-based, Cutibacterium acnes. To be noted: C. acnes ATCC11827; RCM broth, anaerobic, 1 × 10^6 CFU per mL, two-fold dilutions 0.5–32 μg/mL, 48 h, OD 600 nm; mean of three replicates. The procedure:
as §1, §2

The subject of series [4] is C. acnes HL072PA1. The class given is cell-based, Cutibacterium acnes. To be noted: C. acnes HL072PA1; RCM broth, anaerobic, 1 × 10^6 CFU per mL, two-fold dilutions 0.5–32 μg/mL, 48 h, OD 600 nm; mean of three replicates. The procedure: as §1, §2
Series [5] deals with C. acnes HL038PA1. It counts as cell-based, Cutibacterium acnes. To be noted: C. acnes HL038PA1; RCM broth, anaerobic, 1 × 10^6 CFU per mL, two-fold dilutions 0.5–32 μg/mL, 48 h, OD 600 nm; mean of three replicates. The procedure:
as §1, §2

For series [6], the system named is C. acnes HL043PA2. It counts as cell-based, Cutibacterium acnes. To be noted: C. acnes HL043PA2 (multi-drug resistant); RCM broth, anaerobic, 1 × 10^6 CFU per mL, two-fold dilutions 0.5–32 μg/mL, 48 h, OD 600 nm; mean of three replicates. Here is the method: as §1, §2
Series [7] concerns C. acnes HL045PA1. The class given is cell-based, Cutibacterium acnes. To be noted: C. acnes HL045PA1; RCM broth, anaerobic, 1 × 10^6 CFU per mL, two-fold dilutions 0.5–32 μg/mL, 48 h, OD 600 nm; mean of three replicates. Here is the method: as §1, §2
Series [8] deals with ten C. acnes clinical isolates and two C. acnes ATCC reference strains. It counts as cell-based, Cutibacterium acnes. The procedure: as §1, §2
Series [9] concerns C. acnes ATCC6919. It counts as cell-based, Cutibacterium acnes. To be noted: C. acnes ATCC6919; RCM broth, anaerobic, 1 × 10^6 CFU per mL, two-fold dilutions 0.5–32 μg/mL, 48 h, OD 600 nm; mean of three replicates. Here is the method:
as §1, §2

The subject of series [10] is C. acnes HL007PA1. The class given is cell-based, Cutibacterium acnes. To be noted: C. acnes HL007PA1; RCM broth, anaerobic, 1 × 10^6 CFU per mL, two-fold dilutions 0.5–32 μg/mL, 48 h, OD 600 nm; mean of three replicates. The procedure: as §1, §2
Series [11] relates to bioluminescent human immortalized keratinocytes (HaCaT). The experiment in a line: Mammalian cytotoxicity, bioluminescent human keratinocytes. It counts as cell-based. To be noted: bioluminescent HaCaT. The procedure: Noninvasive and real-time monitoring of mammalian cytotoxicity to assess the potential skin toxicity of the dAMPs was evaluated using bioluminescent human immortalized keratinocytes (HaCaT, AddexBio, San Diego, CA, USA). The bioluminescent variant of HaCaT was constructed by transfection with a luciferase gene (RediFect Red-Fluc-Puromycin, Cat# CL596002). Keratinocytes (1 × 10^4 cells, 100 μL) were plated in 96-well black-walled plates. The candidate dAMPs were 2-fold serially diluted from 1024 µg/mL in growth medium supplemented with 150 µg/mL D-luciferin. Each concentration was performed in triplicate, with the final volume being 200 μL. Imaging was performed at select times (0, 15, and 30 min and 1, 3, 5, and 8 h) after the addition of the dAMP, and compared to concurrently run vehicle-control, using an IVIS Lumina imaging system (Caliper Life Sciences, Inc., Hopkinton, MA, USA). For imaging, the 96-well plate was positioned on the stage (12.5-cm field of view), with an open emission filter, binning of 4, and f-stop 1 and a 1-min exposure time. Data analysis was performed using the Living Image software program (version 4.3, Caliper Life Sciences, Inc.). The dAMP concentrations required to kill 10% and 50% of keratinocytes were determined using GraphPad Prism 7 (GraphPad Software, San Diego, CA, USA).

In general, MIC refers to the least concentration at which growth counts as inhibited. Lower therefore signals inhibition by little substance. For `CC[C@H](C)[C@@H]1NC(=O)CNC(=O)[C@H](CCCCN)NC(=O)[C@H](Cc2ccc(O)cc2)NC(=O)[C@@H]2CSSC[C@H](NC1=O)C(=O)N[C@@H](Cc1ccc(O)cc1)C(=O)N[C@@H](CCCCN)C(=O)N[C@@H](CCCCN)C(=O)N[C@H](C(=O)N[C@@H](CCCCN)C(N)=O)CSSC[C@H](NC(=O)[C@H](Cc1c[nH]c3ccccc13)NC(=O)[C@@H](N)CCCNC(=N)N)C(=O)N[C@@H](Cc1ccccc1)C(=O)N[C@@H](CCCCN)C(=O)N[C@@H](C(C)C)C(=O)N2` [RP556] (H-RWCFKVCYKGICYKKCK-NH2; disulfide 3-16, 7-12), the “mean bacterial burden in skin (CFU/g)” value in series [1] (RP556 5 mg/mL (0.5%) in 2% hydroxypropyl methylcellulose) is given as “below the detectable limit; also recorded: completely eliminated C. acnes infection”; in series [1] (RP556 20 mg/mL in 2% hydroxypropyl methylcellulose), “below the detectable limit”. Also, in series [1] (5 and 20 mg/mL, 7 applications), the “clinical observations and body weight following treatment” value is “no untoward clinical observations or changes in body weight”. The MIC in series [2] is reported as 2 µg/mL (≈ 0.929 µM); in series [3], 8 µg/mL (≈ 3.72 µM); in series [4], 8 µg/mL (≈ 3.72 µM); in series [5], 4 µg/mL (≈ 1.86 µM); in [6], 4 µg/mL (≈ 1.86 µM); in series [7], 4 µg/mL (≈ 1.86 µM). Besides, the MIC in [9] and in [10] was 4 µg/mL (≈ 1.86 µM) throughout. Besides, the “in vitro anti-bacterial activity against the C. acnes bacterial strains (in words)” value in series [8] (0.5–32 μg/mL concentration range evaluated) was “most active”. The “MIC values against all C. acnes isolates” value in series [8] (span over ten antibiotic resistant isolates and two ATCC reference strains) was in the range of 2 to 8 µg/mL. In addition, the “viability of human keratinocytes” value in series [11] (8 h incubation at 256 μg/mL) was “greater than 80%”. Also, the “EC10, concentration required to kill 10% of human keratinocytes” value in series [11] (1 × 10^4 cells/well, 8 h incubation, 2-fold dilutions from 1024 µg/mL, triplicate, IVIS imaging, GraphPad Prism 7) was 276 µg/mL.
